Tests used:
Test in all cases: relative viability (nuclei count vs DMSO), 5 days (fraction); higher = more cells survive
[1] = system: NCI-H322M
In short: (§1)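 Cells from lung cancer lines were seeded into 1536-well plates and, one day later, dosed by pin tool. Treatments were either a single drug or a fixed dose of an anchor drug with five library-drug doses (not always all listed) in √10 steps. After 5 days, nuclei were stained in a one-step fixation (final 0.05% Triton X-100, 1% formaldehyde, 1 ug/ml Hoechst) and counted on 4× images, and relative viability is the treated-to-vehicle nuclei ratio, as the median of duplicate plates.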

[2] = system: SW 1573
In short: as §1

[3] = system: NCI-H1355
In short: as §1

[4] = system: PC-14
In short: as §1

[5] = system: HCC-15
In short: as §1

[6] = system: NCI-H2342
In short: as §1

[7] = system: NCI-H2405
In short: as §1

[8] = system: COR-L23
In short: as §1

[9] = system: PC-3 [JPC-3]
In short: as §1

[10] = system: ABC-1
In short: as §1

[11] = system: EKVX
In short: as §1

[12] = system: NCI-H661
In short: as §1

[13] = system: NCI-H2228
In short: as §1

[14] = system: NCI-H1563
In short: as §1

[15] = system: NCI-H1650
In short: as §1

[16] = system: H3255
In short: as §1

[17] = system: NCI-H1437
In short: as §1

[18] = system: RERF-LC-KJ
In short: as §1

[19] = system: LK-2
In short: as §1

[20] = system: HCC-827
In short: as §1

[21] = system: CAL-12T
In short: as §1

[22] = system: NCI-H520
In short: as §1

[23] = system: NCI-H1734
In short: as §1

## O=C(O)c1ccc(-c2c[nH]c3ncc(-c4ccccc4)cc23)cc1C1CCCC1 + CCNC(=O)c1noc(-c2cc(C(C)C)c(O)cc2O)c1-c1ccc(CN2CCOCC2)cc1 [Luminespib] (partner 0.01 µM)
[1]; first compound 0.04 µM
  relative viability: 0.901
[1]; first compound 0.1265 µM
  relative viability: 0.934
[1]; first compound 0.4 µM
  relative viability: 0.846
[1]; first compound 1.265 µM
  relative viability: 0.664
[2]; first compound 0.04 µM
  relative viability: 0.563
[2]; first compound 0.1265 µM
  relative viability: 0.486
[2]; first compound 0.4 µM
  relative viability: 0.292
[2]; first compound 1.265 µM
  relative viability: 0.383
[3]; first compound 0.04 µM
  relative viability: 0.692
[3]; first compound 0.1265 µM
  relative viability: 0.622
[3]; first compound 0.4 µM
  relative viability: 0.464
[3]; first compound 1.265 µM
  relative viability: 0.384
[4]; first compound 0.04 µM
  relative viability: 0.225
[4]; first compound 0.1265 µM
  relative viability: 0.129
[4]; first compound 0.4 µM
  relative viability: 0.141
[4]; first compound 1.265 µM
  relative viability: 0.134
[5]; first compound 0.04 µM
  relative viability: 0.266
[5]; first compound 0.1265 µM
  relative viability: 0.384
[5]; first compound 0.4 µM
  relative viability: 0.265
[5]; first compound 1.265 µM
  relative viability: 0.192
[6]; first compound 0.04 µM
  relative viability: 0.773
[6]; first compound 0.1265 µM
  relative viability: 0.715
[6]; first compound 0.4 µM
  relative viability: 0.758
[6]; first compound 1.265 µM
  relative viability: 0.678
[7]; first compound 0.04 µM
  relative viability: 0.778
[7]; first compound 0.1265 µM
  relative viability: 0.831
[7]; first compound 0.4 µM
  relative viability: 0.579
[7]; first compound 1.265 µM
  relative viability: 0.535
[8]; first compound 0.04 µM
  relative viability: 0.656
[8]; first compound 0.1265 µM
  relative viability: 0.742
[8]; first compound 0.4 µM
  relative viability: 0.612
[8]; first compound 1.265 µM
  relative viability: 0.407
[9]; first compound 0.04 µM
  relative viability: 0.678
[9]; first compound 0.1265 µM
  relative viability: 0.761
[9]; first compound 0.4 µM
  relative viability: 0.619
[9]; first compound 1.265 µM
  relative viability: 0.569
[10]; first compound 0.1265 µM
  relative viability: 0.572
[10]; first compound 1.265 µM
  relative viability: 0.509
[11]; first compound 0.04 µM
  relative viability: 0.885
[11]; first compound 0.1265 µM
  relative viability: 0.92
[11]; first compound 0.4 µM
  relative viability: 0.931
[11]; first compound 1.265 µM
  relative viability: 0.615
[12]; first compound 0.04 µM
  relative viability: 0.915
[12]; first compound 0.4 µM
  relative viability: 0.905
[12]; first compound 1.265 µM
  relative viability: 0.897
[13]; first compound 0.04 µM
  relative viability: 0.144
[13]; first compound 0.1265 µM
  relative viability: 0.188
[13]; first compound 0.4 µM
  relative viability: 0.0961
[13]; first compound 1.265 µM
  relative viability: 0.0961
[14]; first compound 0.04 µM
  relative viability: 0.489
[14]; first compound 0.1265 µM
  relative viability: 0.599
[14]; first compound 0.4 µM
  relative viability: 0.42
[14]; first compound 1.265 µM
  relative viability: 0.508
[15]; first compound 0.04 µM
  relative viability: 0.194
[15]; first compound 0.1265 µM
  relative viability: 0.17
[15]; first compound 0.4 µM
  relative viability: 0.196
[15]; first compound 1.265 µM
  relative viability: 0.197
[16]; first compound 0.04 µM
  relative viability: 0.978
[16]; first compound 0.1265 µM
  relative viability: 0.983
[16]; first compound 0.4 µM
  relative viability: 0.855
[16]; first compound 1.265 µM
  relative viability: 0.778
[17]; first compound 0.04 µM
  relative viability: 1.09
[17]; first compound 0.1265 µM
  relative viability: 1.07
[17]; first compound 0.4 µM
  relative viability: 0.925
[17]; first compound 1.265 µM
  relative viability: 0.603
[18]; first compound 0.04 µM
  relative viability: 1.32
[18]; first compound 0.1265 µM
  relative viability: 1.19
[18]; first compound 0.4 µM
  relative viability: 1.1
[18]; first compound 1.265 µM
  relative viability: 0.645
[19]; first compound 0.04 µM
  relative viability: 0.157
[19]; first compound 0.1265 µM
  relative viability: 0.187
[19]; first compound 0.4 µM
  relative viability: 0.161
[19]; first compound 1.265 µM
  relative viability: 0.168
[20]; first compound 0.04 µM
  relative viability: 0.602
[20]; first compound 0.1265 µM
  relative viability: 0.793
[20]; first compound 0.4 µM
  relative viability: 0.413
[20]; first compound 1.265 µM
  relative viability: 0.485
[21]; first compound 0.04 µM
  relative viability: 0.57
[21]; first compound 0.1265 µM
  relative viability: 0.354
[21]; first compound 0.4 µM
  relative viability: 0.519
[21]; first compound 1.265 µM
  relative viability: 0.268
[22]; first compound 0.04 µM
  relative viability: 0.223
[22]; first compound 0.1265 µM
  relative viability: 0.195
[22]; first compound 0.4 µM
  relative viability: 0.211
[22]; first compound 1.265 µM
  relative viability: 0.217
[23]; first compound 0.04 µM
  relative viability: 0.186
[23]; first compound 0.1265 µM
  relative viability: 0.194
[23]; first compound 0.4 µM
  relative viability: 0.224
[23]; first compound 1.265 µM
  relative viability: 0.202

From the supplement of paper PMC10307832
